Assay results taken from patent publication US9149051B2, “Dairy composition with high-potency sweetener” (THE COCA-COLA COMPANY, priority 2005, dated 2015).

test: Rate of dissolution in H2O at 25° C. of rebaudioside A polymorph and amorphous forms; assay type: physicochemical; settings: rating in words
Text: The purification of rebaudioside A by crystallization as described above results in the formation of at least three different polymorphs: Form 1: a rebaudioside A hydrate; Form 2: an anhydrous rebaudioside A; and Form 3: a rebaudioside A solvate. In addition to the at least three polymorph forms of rebaudioside A, the purification of rebaudioside A may result in the formation of an amorphous form of rebaudioside A, Form 4. The aqueous organic solution and temperature of the purification process influence the resulting polymorph and amorphous forms in the substantially pure rebaudioside A composition. FIGS. 1-5 are exemplary powder x-ray diffraction (XRPD) scans of the polymorph and amorphous forms of rebaudioside A: Form 1 (hydrate), Form 2 (anhydrate), Form 3A (methanol solvate), Form 3B (ethanol solvate), and Form 4 (amorphous), respectively.

Substance | Rate of dissolution in H2O at 25° C.
rebaudioside A [Form 1] | Very low
rebaudioside A [Form 3] | High
rebaudioside A [Form 2] | Intermediate
rebaudioside A [Form 4] | High
